Test results reported in ChEMBL document CHEMBL1201862, “PubChem BioAssay data set” (2004).
“And” between values parts separate entries of the source, which are not always exact repeats. Identical values can stand only once.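 Five concentrations, 48 hours, 96-well plates. The concentration for 50% growth inhibition is given as GI50.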 The source made the active and inactive calls. Rule as the data show it: active = GI50 up to about 1.1 µM and inactive = higher.

Tests used:
Assay in all cases: inhibition of tumour cell growth, NCI panel, 48 h
786-0 = test system: 786-0
DMS-273 = test system: DMS-273
SF-268 = test system: SF-268
HOP-62 = test system: HOP-62
HL-60 = test system: HL-60
UO-31 = test system: UO-31
SK-OV-3 = test system: SK-OV-3
OVCAR-3 = test system: OVCAR-3
KM-20L2 = test system: KM-20L2
HCC 2998 = test system: HCC 2998
SK-MEL-28 = test system: SK-MEL-28
OVCAR-8 = test system: OVCAR-8
XF498 = test system: XF498
EKVX = test system: EKVX
CAKI-1 = test system: CAKI-1
SN12C = test system: SN12C
T47D = test system: T47D
PC-3 = test system: PC-3
NCI/ADR-RES = test system: NCI/ADR-RES
Hs-578T = test system: Hs-578T

Measured: GI50

Fc1ccc2c(c1)SC1Oc3ccccc3-c3c1c-2nn3-c1ccccc1 (stereo unspecified)
inactive: 786-0 > 100 µM | DMS-273 > 100 µM | SF-268 > 100 µM | HOP-62 30.4 µM | HL-60 > 100 µM | UO-31 > 100 µM | SK-OV-3 > 100 µM | OVCAR-3 > 100 µM | KM-20L2 > 100 µM | HCC 2998 > 100 µM | SK-MEL-28 > 100 µM | OVCAR-8 > 100 µM | XF498 > 100 µM | EKVX > 100 µM

Cc1ccc(S(=O)(=O)c2ccccc2[N+](=O)[O-])cc1
inactive: 786-0 > 100 µM | DMS-273 > 100 µM | HOP-62 92.3 µM | HL-60 37.5 µM | UO-31 81.8 µM | SK-OV-3 > 100 µM | OVCAR-3 > 100 µM | KM-20L2 > 100 µM | HCC 2998 > 100 µM | SK-MEL-28 > 100 µM | CAKI-1 67.5 µM | OVCAR-8 > 100 µM | XF498 > 100 µM | EKVX > 100 µM

COC1OC(COC(C)=O)C(OC(C)=O)C(OC(C)=O)C1NC(=O)N(CCCl)N=O (stereo unspecified)
inactive: 786-0 54.6 µM and 63.4 µM | DMS-273 > 100 µM | SF-268 26.8 µM and 20.3 µM | HL-60 30.8 µM and 16.1 µM | SN12C > 100 µM | SK-OV-3 > 100 µM | OVCAR-3 > 100 µM | KM-20L2 > 100 µM | HCC 2998 > 100 µM | SK-MEL-28 > 100 µM | CAKI-1 > 100 µM | OVCAR-8 > 100 µM | XF498 > 100 µM | EKVX > 100 µM

CCOC(=O)NC(=O)c1cn(C2OC(CO)C(O)C2O)c(=O)[nH]c1=O (stereo unspecified)
inactive: 786-0 > 100 µM | DMS-273 > 100 µM | SF-268 > 100 µM | HOP-62 > 100 µM | HL-60 > 100 µM | UO-31 > 100 µM | SN12C > 100 µM | SK-OV-3 > 100 µM | OVCAR-3 > 100 µM | KM-20L2 > 100 µM | HCC 2998 > 100 µM | SK-MEL-28 > 100 µM | CAKI-1 > 100 µM | OVCAR-8 > 100 µM | EKVX > 100 µM

CCCC(=O)N[C@@H](Cc1cc(I)c(O)c(I)c1)C(=O)NCCCNCCCCNCCCNC(=O)[C@@H](N)CCCN=C(N)N
inactive: 786-0 73.3 µM | DMS-273 27.4 µM | SF-268 > 10 µM | HOP-62 33.8 µM | HL-60 33.7 µM | UO-31 29.8 µM | SN12C > 100 µM | OVCAR-3 > 100 µM | KM-20L2 > 100 µM | HCC 2998 42.3 µM | SK-MEL-28 50.4 µM | OVCAR-8 > 100 µM | XF498 > 100 µM | EKVX > 100 µM

O=C1CCCC/C1=C1\C(=O)Nc2cc(F)ccc21
inactive: 786-0 > 100 µM | DMS-273 > 100 µM | SF-268 > 100 µM | HOP-62 > 100 µM | HL-60 > 100 µM | UO-31 > 100 µM | SN12C > 100 µM | SK-OV-3 > 100 µM | KM-20L2 > 100 µM | HCC 2998 > 100 µM | SK-MEL-28 > 100 µM | CAKI-1 > 100 µM | OVCAR-8 > 100 µM | XF498 > 100 µM | EKVX > 100 µM

COc1ccc(CN2CC(C)(C)C2=O)c(OC)c1
inactive: 786-0 > 100 µM | DMS-273 > 100 µM | SF-268 > 100 µM | HOP-62 > 100 µM | HL-60 > 100 µM | UO-31 > 100 µM | SN12C > 100 µM | SK-OV-3 > 100 µM | OVCAR-3 > 100 µM | KM-20L2 > 100 µM | HCC 2998 > 100 µM | SK-MEL-28 > 100 µM | OVCAR-8 > 100 µM | XF498 > 100 µM | EKVX > 100 µM

CC(=O)CC(=O)ON(C)C(C)=O
inactive: 786-0 > 100 µM | DMS-273 > 100 µM | SF-268 > 100 µM | HOP-62 > 100 µM | HL-60 > 100 µM | UO-31 > 100 µM | SN12C > 100 µM | SK-OV-3 > 100 µM | OVCAR-3 > 100 µM | KM-20L2 > 100 µM | HCC 2998 > 100 µM | SK-MEL-28 > 100 µM | CAKI-1 > 100 µM | OVCAR-8 > 100 µM | XF498 > 100 µM

O=C(CC(=O)C1CCOC1=O)C(=O)Nc1ccc(Cl)cc1 (stereo unspecified)
inactive: 786-0 > 100 µM | DMS-273 > 100 µM | SF-268 > 100 µM | HOP-62 > 100 µM | HL-60 > 100 µM | UO-31 > 100 µM | SN12C > 100 µM | SK-OV-3 > 100 µM | OVCAR-3 > 100 µM | KM-20L2 > 100 µM | HCC 2998 > 100 µM | SK-MEL-28 > 100 µM | CAKI-1 > 100 µM | OVCAR-8 > 100 µM | EKVX > 100 µM

CN(C)CC/[N+]([O-])=C(/c1ccccc1)C12CC3CC(CC(C3)C1)C2
inactive: 786-0 13.5 µM | SF-268 20.9 µM | HOP-62 14.8 µM | HL-60 11.8 µM | UO-31 11.9 µM | SN12C 17.2 µM | SK-OV-3 17.1 µM | OVCAR-3 14.7 µM | KM-20L2 11.5 µM | HCC 2998 22.2 µM | SK-MEL-28 16.2 µM | CAKI-1 17 µM | OVCAR-8 17.9 µM | XF498 13.2 µM | EKVX 21 µM

COc1ccc2cc3nc(O)cc(O)c3cc2c1OC
inactive: 786-0 > 100 µM | SF-268 > 100 µM | HOP-62 > 100 µM | HL-60 > 100 µM | UO-31 > 100 µM | SN12C > 100 µM | OVCAR-3 > 100 µM | KM-20L2 > 100 µM | HCC 2998 > 100 µM | SK-MEL-28 > 100 µM | CAKI-1 > 100 µM | OVCAR-8 > 100 µM | XF498 > 100 µM | EKVX > 100 µM

Clc1ccccc1C1=NN(c2ccccc2)C2c3cc(Br)ccc3OCC12 (stereo unspecified)
inactive: 786-0 > 100 µM | DMS-273 > 100 µM | SF-268 > 100 µM | HOP-62 > 100 µM | HL-60 > 100 µM | UO-31 > 100 µM | SK-OV-3 > 100 µM | OVCAR-3 > 100 µM | KM-20L2 > 100 µM | HCC 2998 > 100 µM | SK-MEL-28 > 100 µM | OVCAR-8 > 100 µM | XF498 > 100 µM | EKVX 89.9 µM

COc1ccc(C2=NNC(=O)OC2c2ccccc2)cc1 (stereo unspecified)
inactive: 786-0 > 100 µM | SF-268 72.6 µM | HOP-62 > 100 µM | HL-60 67.5 µM | UO-31 > 100 µM | SN12C > 100 µM | OVCAR-3 81.8 µM | KM-20L2 41.2 µM | HCC 2998 34.1 µM | SK-MEL-28 > 100 µM | CAKI-1 92.3 µM | OVCAR-8 > 100 µM | XF498 74 µM | EKVX 76 µM

C/C(=N\NS(=O)(=O)c1ccccc1)c1ccc(Cl)c(Cl)c1
inactive: 786-0 82.2 µM | DMS-273 85.3 µM | SF-268 > 100 µM | HOP-62 61.5 µM | HL-60 97.3 µM | UO-31 45.4 µM | SN12C 45.4 µM | SK-OV-3 67.3 µM | OVCAR-3 25.3 µM | KM-20L2 72.8 µM | HCC 2998 71.1 µM | SK-MEL-28 63.4 µM | CAKI-1 75.2 µM | OVCAR-8 40.6 µM | XF498 > 100 µM | EKVX 67.3 µM

COC1CC(n2cnc3c(N)ncnc32)OC1CO (stereo unspecified)
inactive: 786-0 > 100 µM | DMS-273 > 100 µM | SF-268 > 100 µM | HOP-62 > 100 µM | HL-60 > 100 µM | UO-31 > 100 µM | OVCAR-3 > 100 µM | KM-20L2 > 100 µM | HCC 2998 > 100 µM | SK-MEL-28 > 100 µM | CAKI-1 > 100 µM | OVCAR-8 > 100 µM | XF498 > 100 µM

O=C1OC(O)C(Oc2ccc(Cl)cc2)=C1Cl (stereo unspecified)
inactive: 786-0 > 100 µM | DMS-273 > 100 µM | SF-268 > 100 µM | HOP-62 > 100 µM | HL-60 > 100 µM | UO-31 > 100 µM | SN12C > 100 µM | SK-OV-3 > 100 µM | OVCAR-3 > 100 µM | KM-20L2 > 100 µM | HCC 2998 > 100 µM | SK-MEL-28 > 100 µM | CAKI-1 > 100 µM | OVCAR-8 > 100 µM | EKVX > 100 µM

[O-][n+]1c(-c2ccccc2)c2nc3ccccc3nc2c2ccccc21
inactive: 786-0 > 100 µM | DMS-273 > 100 µM | SF-268 > 100 µM | HOP-62 > 100 µM | UO-31 > 100 µM | SN12C > 100 µM | SK-OV-3 > 100 µM | OVCAR-3 > 100 µM | KM-20L2 > 100 µM | HCC 2998 > 100 µM | SK-MEL-28 > 100 µM | CAKI-1 > 100 µM | OVCAR-8 > 100 µM | XF498 > 100 µM | EKVX > 100 µM

O=CC(NC(=O)N(CCCl)N=O)C(O)C(O)C(O)CO (stereo unspecified)
inactive: 786-0 56.6 µM | DMS-273 1000 µM | SF-268 114 µM | HOP-62 136 µM | HL-60 287 µM | UO-31 > 1200 µM | T47D 679 µM | SN12C 902 µM | SK-OV-3 > 1160 µM | PC-3 > 1250 µM | NCI/ADR-RES 953 µM | OVCAR-3 > 1250 µM | KM-20L2 > 1250 µM | HCC 2998 > 1030 µM | SK-MEL-28 817 µM | Hs-578T > 955 µM | CAKI-1 798 µM | OVCAR-8 1160 µM | EKVX > 1250 µM
